pEC50, pIC50: −log10 of the molar value. Non-standard residues stand in square brackets, D forms with d. Residues, ends and D or L forms follow the SMILES beside them. No end group written: not given here.
Key:
[1] = target: S. mitis ComD-2 receptor; experiment: luminescence reporter competitive inhibition assay (comX expression); type: cell-based, Streptococcus mitis; details: for pIC50: same reporter strain, competition against 1 μM native S. mitis-CSP-2, 30 min at 37 °C, triplicate on three separate days
Description: As a positive control, 2 μl of S. mitis-CSP-2 and 2 μl of DMSO were added to the same well in triplicate. As a negative control, 4 μl of DMSO was added in triplicate. Then, 2 μl of 15 mg/ml D-luciferin in distilled water was added to each experimental or control well, after which 194 μl of bacteria was added, and the plate was incubated for 30 min at 37 °C. Following incubation, the A600 and luminescence of each experimental well were measured. Results were reported as percent activation, which is the ratio between the luminescence (presented as relative luminescence units, RLU/A600) of the analog and that of the positive control. […] GraphPad Prism was used to calculate the IC50 values, which are the concentration of inhibitor where the response (or binding) is reduced by half. Experiments were performed in triplicate on three separate days.
Antagonism assays were performed at 10 μM concentration of peptides against 1 µM concentration of S. mitis-CSP-2. S. mitis-CSP-2 (1 µM) was used as the positive control (100%) while DMSO as the negative control (0%). For all figures, comX expression is presented as relative luminescence units (RLU) divided by measured cultural optical density (OD). Percent (%) ComD activation was measured by normalizing the RLU/OD value obtained for each peptide to that of the native S. mitis-CSP-2. The results are averages from three replicates and representative of three independent experiments. Error bars represent the standard error of the mean of nine values.
Figure S-8. Primary antagonism screening assay data for t he S. mitis-CSP-2 alanine scan and D-amino acid […]
determine its IC50 value.
Figure S-9. Primary antagonism screening assay data for t he S. mitis-CSP-2 truncated analogs . S. mitis- […]

[2] = target: S. mitis ComD-2 receptor; experiment: luminescence reporter activation assay (comX expression); type: cell-based, Streptococcus mitis; details: for pEC50: S. mitis luciferase reporter strain ATCC49456 PcomX luc::Spc, 30 min at 37 °C, triplicate on three separate days
Description: The ability of synthetic S. mitis-CSP-2 analogs to activate the expression of S. mitis comX was determined using the constructed S. mitis luciferase reporter strain. First, bacteria from the S. mitis luciferase reporter strain freezer stock were streaked onto a Todd-Hewitt broth supplemented with 0.5% yeast extract (THY) agar plate containing 5% horse serum and spectinomycin at a final concentration of 200 μg/ml. The plate was incubated overnight in a CO2 incubator (37 °C with 5% CO2). Fresh colonies were transferred to Tryptic soy broth supplemented with spectinomycin at a final concentration of 200 μg/ml, and the culture was incubated at 37 °C in a 5% CO2-supplemented atmosphere and grown overnight (16 h) until the culture reached an absorbance at 600 nm (optical density at 600 nm [A600]) of 0.45. Overnight cultures of the S. mitis reporter strain at A600 0.45 were diluted 1:10 in Tryptic soy broth and the liquid cultures were incubated in a CO2 incubator for 30 to 45 min, until the bacteria reached early exponential stage (A600 ∼ 0.2) as determined by using a plate reader. During incubation, clear-bottom white 96-well microtiter plates were prepared for the activation assays. An initial activation screening was performed at a high peptide concentration (10,000 nM) for all the S. mitis-CSP-2 analogs (Figs. S1–S7). For each experimental sample, a total of 2 μl of a 1 mM CSP stock solution in dimethyl sulfoxide (DMSO) was added in triplicate to the clear-bottom white 96-well microtiter plate. A total of 2 μl of DMSO was added in triplicate and served as the negative control, and 2 μl of a 1 mM stock of native S. mitis-CSP-2 was added in triplicate as a positive control. In the dark, 2 μl of a 15 mg/ml D-luciferin stock in distilled water was added to each well. Following the addition of synthetic CSPs and D-luciferin, 196 μl of the diluted bacterial culture was added to each well, and the plate was incubated for 30 min at 37 °C. Following incubation, the A600 and luminescence of each experimental well were measured. Results were reported as percent activation, which is the ratio between the luminescence (presented as relative luminescence units, RLU/A600) of the analog and that of the positive control. […] EC50 values, the concentration of the peptide to achieve a half maximal response, for each activator were calculated using GraphPad Prism (https://www.graphpad.com/). Experiments were performed in triplicate on three separate days.
Primary reporter gene assay data
Agonism assays were performed at a 10 µM concentration of synthetic CSP. S. mitis-CSP-2 was used as the positive control (100%) while DMSO as the negative control (0%). For all figures, comX expression is presented as relative luminescence units (RLU) divided by measured cultural optical density (OD). Percent (%) ComD activation was measured by normalizing the RLU/OD value obtained for each peptide to that of the native S. mitis-CSP-2. The results are averages from three replicates and representative of three independent experiments. Error bars represent the standard error of the mean of nine values.
Figure S-1. Primary agonism screening assay data for the S. mitis-CSP-2 alanine scan analogs. Peptides […]
(1 picture or pasted object on this page, not shown here)

[3] = target: pneumococcus ComD1 receptor; details: read-out: EC50, S. pneumoniae ComD1; cited from earlier work
Text: (§1) Table 5 EC50 or IC50 values of select Streptococcus mitis-CSP-2–based pneumococcal QS modulators against the pneumococcus ComD1 and ComD2 and the S. mitis ComD-2 receptors ^a | column: Streptococcus pneumoniae ^b / ComD1 / EC50 or IC50∗ (nM) || In our previous work, we utilized the S. mitis-CSP-2 scaffold to develop analogs capable of modulating the two pneumococcal ComD receptors at low nanomolar concentrations ([2]). We wanted to evaluate whether the optimization of the S. mitis-CSP-2 scaffold to the pneumococcus ComD receptors affected the ability of the modified analogs to interact with the S. mitis ComD-2 receptor.

[4] = target: pneumococcus ComD2 receptor; details: read-out: EC50, S. pneumoniae ComD2; cited from earlier work
Text: as §1, with “/ ComD2” for “/ ComD1”

Molecule | pEC50 [2] | pEC50 [3] | pEC50 [4] | further results
CC[C@H](C)[C@H](NC(=O)[C@H](C)N)C(=O)N[C@@H](CCCNC(=N)N)C(=O)N[C@@H](CCC(N)=O)C(=O)N[C@H](C(=O)N[C@@H](Cc1c[nH]cn1)C(=O)N[C@@H](CC(N)=O)C(=O)N[C@H](C(=O)N[C@@H](Cc1ccccc1)C(=O)N[C@H](Cc1ccccc1)C(=O)N[C@H](CC(N)=O)C(=O)N[C@@H](Cc1ccccc1)C(=O)N[C@@H](Cc1ccccc1)C(=O)N[C@@H](CCCCN)C(=O)N[C@@H](CCCNC(=N)N)C(=O)N[C@@H](CCCNC(=N)N)C(=O)O)[C@@H](C)CC)[C@@H](C)O [S. mitis-CSP-2-E1Af10n11] (H-AIRQTHNIF[dF][dN]FFKRR-OH; N-terminus and C-terminus assumed) | – | – | – | pIC50 [1]: < 6.00
CC[C@H](C)[C@H](NC(=O)[C@H](CC(N)=O)NC(=O)[C@@H](Cc1c[nH]cn1)NC(=O)[C@@H](NC(=O)[C@H](CCC(N)=O)NC(=O)[C@H](CCCNC(=N)N)NC(=O)[C@@H](NC(=O)[C@@H](N)CCC(=O)O)[C@@H](C)CC)[C@@H](C)O)C(=O)N[C@@H](Cc1ccccc1)C(=O)N[C@@H](Cc1ccccc1)C(=O)N[C@@H](CC(N)=O)C(=O)N[C@@H](Cc1ccccc1)C(=O)N[C@@H](Cc1ccccc1)C(=O)N[C@@H](CCCCN)C(=O)N[C@@H](CCCNC(=N)N)C(=O)N[C@@H](CCCNC(=N)N)C(=O)O [S. mitis-CSP-2-h6] (H-EIRQT[dH]NIFFNFFKRR-OH; N-terminus and C-terminus assumed) | < 6.00 | – | – | –
CC[C@H](C)[C@H](NC(=O)[C@@H](N)CCC(=O)O)C(=O)N[C@@H](CCCNC(=N)N)C(=O)N[C@@H](CCC(N)=O)C(=O)N[C@H](C(=O)N[C@@H](Cc1c[nH]cn1)C(=O)N[C@H](CC(N)=O)C(=O)N[C@H](C(=O)N[C@@H](Cc1ccccc1)C(=O)N[C@@H](Cc1ccccc1)C(=O)N[C@@H](CC(N)=O)C(=O)N[C@@H](Cc1ccccc1)C(=O)N[C@@H](Cc1ccccc1)C(=O)N[C@@H](CCCCN)C(=O)N[C@@H](CCCNC(=N)N)C(=O)N[C@@H](CCCNC(=N)N)C(=O)O)[C@@H](C)CC)[C@@H](C)O [S. mitis-CSP-2-n7] (H-EIRQTH[dN]IFFNFFKRR-OH; N-terminus and C-terminus assumed) | < 6.00 | – | – | –
CC[C@H](C)[C@H](NC(=O)[C@H](CC(N)=O)NC(=O)[C@H](Cc1c[nH]cn1)NC(=O)[C@@H](NC(=O)[C@@H](CCC(N)=O)NC(=O)[C@H](CCCNC(=N)N)NC(=O)[C@@H](NC(=O)[C@@H](N)CCC(=O)O)[C@@H](C)CC)[C@@H](C)O)C(=O)N[C@@H](Cc1ccccc1)C(=O)N[C@@H](Cc1ccccc1)C(=O)N[C@@H](CC(N)=O)C(=O)N[C@@H](Cc1ccccc1)C(=O)N[C@@H](Cc1ccccc1)C(=O)N[C@@H](CCCCN)C(=O)N[C@@H](CCCNC(=N)N)C(=O)N[C@@H](CCCNC(=N)N)C(=O)O [S. mitis-CSP-2-q4] (H-EIR[dQ]THNIFFNFFKRR-OH; N-terminus and C-terminus assumed) | < 6.00 | – | – | –
CC[C@H](C)[C@H](NC(=O)[C@H](CC(N)=O)NC(=O)[C@H](Cc1c[nH]cn1)NC(=O)[C@H](NC(=O)[C@H](CCC(N)=O)NC(=O)[C@H](CCCNC(=N)N)NC(=O)[C@@H](NC(=O)[C@@H](N)CCC(=O)O)[C@@H](C)CC)[C@H](C)O)C(=O)N[C@@H](Cc1ccccc1)C(=O)N[C@@H](Cc1ccccc1)C(=O)N[C@@H](CC(N)=O)C(=O)N[C@@H](Cc1ccccc1)C(=O)N[C@@H](Cc1ccccc1)C(=O)N[C@@H](CCCCN)C(=O)N[C@@H](CCCNC(=N)N)C(=O)N[C@@H](CCCNC(=N)N)C(=O)O [S. mitis-CSP-2-t5] (H-EIRQ[dT]HNIFFNFFKRR-OH; N-terminus and C-terminus assumed) | < 6.00 | – | – | –
AIRQTHNIFFNAFKRR [S. mitis-CSP-2-E1AF12A] | – | – | – | pIC50 [1]: < 6.00
AIRQTHNIFFNFAKRR [S. mitis-CSP-2-E1AF13A] | – | – | – | pIC50 [1]: < 6.00
EIRQTANIFFNFFKRR [S. mitis-CSP-2-H6A] | < 6.00 | – | – | –
EIRQTHNIAFNFFKRR [S. mitis-CSP-2-F9A] | < 6.00 | – | – | –
EIRQTHNIFFNFF [S. mitis-CSP-2-des-K14R15R16, truncated analog of S. mitis-CSP-2] | – | – | – | ComD-2 activation: EC50 not determined due to the analog's low induction in primary agonism screening assay ([2]; initial screening at 10,000 nM peptide): complete loss of activity
EMRLTHFIFFNFFKRR [S. mitis-CSP-2-I2MQ4LN7F] | < 6.00 | 6.86 | 7.12 | –
EMRLTHNFFFNFFKRR [S. mitis-CSP-2-I2MQ4LI8F, S. mitis-CSP-2-based pneumococcal QS modulator from previous study] | – | 7.38 | 7.52 | –
EMRLTHNIFFFFFKRR [S. mitis-CSP-2-I2MQ4LN11F] | < 6.00 | 7.83 | 6.73 | –
EMRQTHFFFFNFFKRR [S. mitis-CSP-2-I2MN7FI8F] | < 6.00 | 7.20 | 7.87 | –
EMRQTHFIFFNLFKRR [S. mitis-CSP-2-I2MN7FF12L] | < 6.00 | 7.14 | 6.95 | –
EMRQTHIFFFNFFKRR [S. mitis-CSP-2-I2MN7II8F] | < 6.00 | 7.21 | 8.57 | –
EMRQTHNFFFFFFKRR [S. mitis-CSP-2-I2MI8FN11F, S. mitis-CSP-2-based pneumococcal QS modulator from previous study] | – | 8.16 | 7.58 | –
EMRQTHNFFFNFFKRR [S. mitis-CSP-2-I2MI8F, S. mitis-CSP-2-based pneumococcal QS modulator from previous study] | – | 6.82 | 7.08 | –
IRQTHNIFFNFFKRR [S. mitis-CSP-2-des-E1] | – | – | – | % ComD activation, primary antagonism screening ([1]; 10 μM peptide against 1 µM S. mitis-CSP-2 (100%), DMSO 0%): less than 50%; pIC50 [1]: < 6.00
